The values that follow come from patent USRE42013E1, “Macrocyclic modulators of the ghrelin receptor” (Tranzyme Pharma Inc., priority 2003, dated 2010).

Where only a bound is given, the exact number is not on record here.

The first assay deals with T1, human growth hormone secretagogue receptor (hGHS-R1a) (Homo sapiens, UniProt Q92847).
T1 construct: purchased PerkinElmer BioSignal #RBHGHSM, lot#1887; host or cells: HEK-293, stably transfected
T1 sequence (Q92847 whole entry): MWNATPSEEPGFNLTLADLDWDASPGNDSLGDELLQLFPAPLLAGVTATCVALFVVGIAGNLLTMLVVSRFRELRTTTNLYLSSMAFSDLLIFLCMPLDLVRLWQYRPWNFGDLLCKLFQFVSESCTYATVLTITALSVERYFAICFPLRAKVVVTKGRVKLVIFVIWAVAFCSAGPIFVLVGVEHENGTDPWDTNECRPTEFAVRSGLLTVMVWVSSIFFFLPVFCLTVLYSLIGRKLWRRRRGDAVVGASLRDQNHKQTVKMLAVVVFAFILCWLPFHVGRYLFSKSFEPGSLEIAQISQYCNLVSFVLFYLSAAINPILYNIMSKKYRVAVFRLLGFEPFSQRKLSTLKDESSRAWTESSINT
The experiment in a line: Competitive radioligand binding assay (ghrelin receptor), [125I]-ghrelin displacement. To be noted: Table 4; binding at human ghrelin receptor; TFA salts unless otherwise noted; read-out: Ki. The protocol: The competitive binding assay at the human growth hormone secretagogue receptor (hGHS-R1a) was carried out analogously to assays described in the literature.
Multiscreen Harvest plates-GF/C (Millipore, #MAHFC1H60) • 4. […] Bottom seal (Millipore, #MATAH0P00) • 7. […] Binding Buffer: 25 mM Hepes (pH 7.4), 1 mM CaCl2, 5 mM MgCl2, 2.5 mM EDTA, 0.4% BSA Assay Volumes
Competition experiments were performed in a 300 μl filtration assay format. • 1. 220 μL of membranes diluted in binding buffer • 2. 40 μL of compound diluted in binding buffer • 3. […] Compound Handling
Compounds were provided frozen on dry ice at a stock concentration of 10 mM diluted in 100% DMSO and stored at −80° C. until the day of testing. On the test day, compounds were allowed to thaw at rt O/N and then diluted in assay buffer according to the desired test concentrations.
Plates were sealed with TopSeal-A, vortexed gently and incubated at rt for 30 min. The reaction was arrested by filtering samples through Multiscreen Harvest plates (pre-soaked in 0.5% polyethyleneimine) using a Tomtec Harvester, washed 9 times with 500 μL of cold 50 mM Tris-HCl (pH 7.4, 4° C.), and then plates were air-dried in a fumehood for 30 min. A bottom seal was applied to the plates prior to the addition of 25 μL of MicroScint-0 to each well. […] Results were expressed as counts per minute (cpm).
Data were analyzed by GraphPad Prism (GraphPad Software, San Diego, Calif.) using a variable slope non-linear regression analysis.
Compound structures for Tables 3A, 3B and 3D are presented with the various groups as defined for the general structure of formula I. For Tables 3B and 3D, in all entries, m, n and p are 0; X, Z1 and Z2 are each NH. For Table 3B, R1 is H for all entries. The tethers (T) are illustrated with the bonding to X and Z2 as indicated. The compounds themselves are shown for Table 3C.
• 1. […] Key Aspects of Method • 1. […] Results
As usually defined, the Ki is a measure of affinity in units of concentration, obtained from inhibition or displacement. As to `CCC(C)C1NCCOc2ccccc2CCCNC(=O)C(Cc2cccs2)NC(=O)C(C)N(C)C1=O` (centres unmarked) [compound 34], the Ki was 0.01 to 0.1 µM. For `CCC(C)C1NCCOc2ccccc2CCNC(=O)C(Cc2ccccc2)NC(=O)C(C)N(C)C1=O` (centres unmarked) [compound 178], the Ki is 0.1 to 1 µM.

Still in this assay, the particulars now being: [125I]-ghrelin displacement, hGHS-R1a HEK-293 membranes; read-out: Binding Activity at the Human Ghrelin Receptor (Ki).
As for `CCC(C)C1NCCCc2ccccc2CCCNC(=O)C(Cc2ccccc2)NC(=O)C(C)N(C)C1=O` (centres unmarked) [compound 190], the Ki was 0.01 to 0.1 µM. As to `CCC(C)C1NCCOc2ccc(C(=N)N)cc2CCCNC(=O)C(Cc2ccccc2)NC(=O)C(C)N(C)C1=O` (centres unmarked) [compound 196], the Ki is > 10 µM. The same measure, in the same setting: next, `CC(C)C1NCCOc2ccccc2C=CCNC(=O)C(Cc2ccccc2)NC(=O)C2(CCCC2)NC1=O` (centres unmarked) [compound 200]: 0.01 to 0.1 µM; `CCCC1C(=O)N(C)C(C)C(=O)NC(Cc2ccccc2)C(=O)NCCCc2ccccc2OCCN1C` (centres unmarked) [compound 201]: 0.1 to 10 µM.

For `CCCC1C(=O)N(C)C(C)C(=O)NC(Cc2ccccc2)C(=O)NCCCc2ccccc2OCCN1C(C)=O` (centres unmarked) [compound 202], the Ki was > 10 µM.

For the compound `CC(=O)N1CCOc2ccccc2C=CCNC(=O)C(Cc2ccccc2)NC(=O)C2(CCCC2)NC(=O)C1CC(C)C` (centres unmarked) [compound 204], the Ki was > 10 µM.

Consider `CCC(C)C1NCCCc2c(c(=O)n(C)c(=O)n2C)CCCNC(=O)C(Cc2ccccc2)NC(=O)C(C)N(C)C1=O` (centres unmarked) [compound 206], for which the Ki was > 10 µM.

The assay is the same for the next values; noted with them: binding activity at the human ghrelin receptor; [125I]-ghrelin displacement, hGHS-R1a/HEK-293 membranes; read-out: Ki.
As for `CCC(C)C1NCCOc2ccccc2CCCNC(=O)C(Cc2ccccc2)NC(=O)C(C(C)CC)N(C)C1=O` (single isomer, unassigned) [150b], the Ki was > 10 µM. The same measure, in the same setting: next, `CCC[C@@H]1NCCOc2ccccc2CCCNC(=O)[C@@H](Cc2ccccc2)NC(=O)CN(CC)C1=O` [compound 5]: 0.1 to 10 µM.

For `CCCCC1NC(=O)C(CCCC)NC(=O)C(C(C)C)NCCOc2ccccc2C=CCNC1=O` (centres unmarked) [compound 12], the Ki is 0.1 to 10 µM. Still for that read-out and setting: the value for `CC(C)CC1NCCOc2ccccc2C=CCNC(=O)C(Cc2cccc3ccccc23)NC(=O)C2(CCCC2)NC1=O` (centres unmarked) [compound 22] was 0.01 to 0.1 µM; that for `CCC(C)C1NCCOc2ccccc2CCCNC(=O)C(C(c2ccccc2)c2ccccc2)NC(=O)C(C)N(C)C1=O` (centres unmarked) [compound 29] was 0.01 to 0.1 µM; that for `CCC(C)C1NCCOc2ccccc2CCCNC(=O)C(Cc2cscn2)NC(=O)C(C)N(C)C1=O` (centres unmarked) [compound 33] was 0.1 to 10 µM.

Consider `CCC(C)C1NCCOc2ccccc2CCCNC(=O)C(Cc2cccs2)NC(=O)C(C)N(C)C1=O` (centres unmarked) [compound 34], for which the Ki lay within 0.01 to 0.1 µM. Still for that read-out and setting: the value for `CC(C)CC1NCCOCCNC(=O)C(Cc2ccccc2)NC(=O)C2(CCCC2)NC1=O` (centres unmarked) [compound 44] was > 10 µM; that for `CCCC1NC(=O)C2(CCCC2)NC(=O)C(CC(C)C)NCCOc2ccccc2C=CCNC1=O` (centres unmarked) [compound 48] was > 10 µM. For `CCCC1NCCOc2ccccc2CCCNC(=O)C(CO)NC(=O)CN(C)C1=O` (centres unmarked) [compound 54], the Ki is > 10 µM. The same measure, in the same setting: the value for `CCCC1NCCOc2ccccc2CCCNC(=O)C(Cc2ccccc2)NC(=O)C(Cc2ccccc2)NC1=O` (centres unmarked) [compound 65] was 1 to 10 µM. Still for that read-out and setting: the value for `CCCC1NCCOc2ccccc2CCCNC(=O)C(Cc2ccccc2)NC(=O)C(C)(C)NC1=O` (centres unmarked) [compound 66] was 0.1 to 10 µM. Consider `CCCC1NCCOc2ccccc2CCCNC(=O)C(Cc2ccccc2)NC(=O)C(CCCCN)NC1=O` (centres unmarked) [compound 69], for which the Ki is > 10 µM. Still for that read-out and setting: next, `CCCC1NCCOc2ccccc2CCCNC(=O)C(Cc2ccccc2)NC(=O)C(CCC(=O)O)NC1=O` (centres unmarked) [compound 70]: > 10 µM; `CCCC1NCCOc2ccccc2CCCNC(=O)C(Cc2ccccc2)NC(=O)C(CCC(=O)O)NC1=O` (centres unmarked) [compound 71]: > 10 µM; `CN1CC(=O)NC(Cc2ccccc2)C(=O)NCCCc2ccccc2OCCNC(Cc2ccccc2)C1=O` (centres unmarked) [compound 75]: 0.1 to 10 µM. Still for that read-out and setting: the value for `CCCC1NCc2ccccc2Sc2ccccc2CNC(=O)C(Cc2ccccc2)NC(=O)CN(C)C1=O` (centres unmarked) [compound 77] was 0.1 to 10 µM; that for `CCCC1NCC2CCC(CNC(=O)C(Cc3ccccc3)NC(=O)CN(C)C1=O)O2` (centres unmarked) [compound 78] was > 10 µM; that for `CC(C)CC1NCCOc2ccccc2CCCNC(=O)C(C)NC(=O)C2(CCCC2)NC1=O` (centres unmarked) [compound 87] was > 10 µM. On the same count and under the same terms, next, `CC(C)CC1NCCC#CCCNC(=O)C(Cc2ccccc2)NC(=O)C2(CCCC2)NC1=O` (centres unmarked) [compound 106]: > 10 µM; `CC(C)CC1NCc2cccc(c2)CCNC(=O)C(Cc2ccccc2)NC(=O)C2(CCCC2)NC1=O` (centres unmarked) [compound 107]: > 10 µM.

With `CC(C)CC1NCc2ccccc2Sc2ccccc2CNC(=O)C(Cc2ccccc2)NC(=O)C2(CCCC2)NC1=O` (centres unmarked) [compound 108], the Ki is 1 to 10 µM. For the compound `CC(C)CC1NCCOc2cccnc2CCCNC(=O)C(Cc2ccccc2)NC(=O)C2(CCCC2)NC1=O` (centres unmarked) [compound 109], the Ki was in the range of 1 to 10 µM. Same read-out and setting: the value for `CCOC(=O)CCC1NC(=O)C2(CCCC2)NC(=O)C(CC(C)C)NCCOc2ccccc2C=CCNC1=O` (centres unmarked) [compound 116] was 1 to 10 µM; that for `CCC1NCCOc2ccccc2CCCNC(=O)C(Cc2ccccc2)NC(=O)C(C)N(C)C1=O` (centres unmarked) [compound 117] was 0.01 to 0.1 µM. Still for that read-out and setting: the value for `O=C1NCC=Cc2ccccc2OCCNC(C(c2ccccc2)c2ccccc2)C(=O)NC2(CCCC2)C(=O)NC1Cc1ccccc1` (centres unmarked) [compound 129] was > 10 µM; that for `O=C1NC2(CCCC2)C(=O)NC(Cc2ccccc2)C(=O)NCC=Cc2ccccc2OCCNC1Cc1ccc2ccccc2c1` (centres unmarked) [compound 131] was 0.1 to 10 µM; that for `O=C1NC2(CCCC2)C(=O)NC(Cc2ccccc2)C(=O)NCC=Cc2ccccc2OCCNC1Cc1cscn1` (centres unmarked) [compound 134] was 0.1 to 10 µM.

With `CCCC1NCCOc2ccccc2C=CCNC(=O)C(Cc2ccccc2)NC(=O)C2(CCCC2)NC1=O` (centres unmarked) [compound 137], the Ki lay in the range of 0.01 to 0.1 µM. Still for that read-out and setting: the value for `CC(C)C1NCCOc2ccccc2C=CCNC(=O)C(Cc2ccccc2)NC(=O)C2(Cc3ccccc3C2)NC1=O` (centres unmarked) [compound 142] was 0.1 to 10 µM; that for `CC(C)CC1NCCOc2ccccc2C=CCNC(=O)C(C(c2ccccc2)c2ccccc2)NC(=O)C2(CCCC2)NC1=O` (centres unmarked) [compound 158] was > 1 µM; that for `CC(C)CC1NCCOc2ccccc2C=CCNC(=O)C(Cc2cscn2)NC(=O)C2(CCCC2)NC1=O` (centres unmarked) [compound 163] was > 10 µM. Still for that read-out and setting: the value for `CC(C)CC1NCCOc2ccccc2C=CCNC(=O)C2(CCCC2)NC(=O)C2(CCCC2)NC1=O` (centres unmarked) [compound 168] was 0.1 to 10 µM. Take `CCC(C)C1NCCOc2ccccc2CCNC(=O)C(Cc2ccccc2)NC(=O)C(C)N(C)C1=O` (centres unmarked) [compound 178]: the Ki lay in the range of 0.1 to 10 µM.

On to `CCC(C)C1NCCCc2ccccc2CCNC(=O)C(Cc2ccccc2)NC(=O)C(C)N(C)C1=O` (centres unmarked) [compound 179], for which the Ki fell in the range of 0.1 to 10 µM. Same read-out and setting: next, `CCC(C)C1NCCCCc2ccccc2CCNC(=O)C(Cc2ccccc2)NC(=O)C(C)N(C)C1=O` (centres unmarked) [compound 180]: 0.1 to 10 µM; `CCC(C)C1NCCCCC=CCNC(=O)C(Cc2ccccc2)NC(=O)C(C)N(C)C1=O` (centres unmarked) [compound 181]: > 10 µM. Same read-out and setting: next, `CCC(C)C1NCCCCC=CCCNC(=O)C(Cc2ccccc2)NC(=O)C(C)N(C)C1=O` (centres unmarked) [compound 183]: > 10 µM; `CCC(C)C1NCCOCC=CCNC(=O)C(Cc2ccccc2)NC(=O)C(C)N(C)C1=O` (centres unmarked) [compound 185]: 0.1 to 10 µM; `CCC(C)C1NCCc2ccccc2C=CCNC(=O)C(Cc2ccccc2)NC(=O)C(C)N(C)C1=O` (centres unmarked) [compound 187]: 0.1 to 10 µM. On the same count and under the same terms, next, `CCC(C)C1NCCc2ccccc2C=CCCNC(=O)C(Cc2ccccc2)NC(=O)C(C)N(C)C1=O` (centres unmarked) [compound 188]: > 1 µM.
